Assay results from paper PMC3733634, “A Computational Module Assembled from Different Protease Family Motifs Identifies PI PLC from Bacillus cereus as a Putative Prolyl Peptidase with a Serine Protease Scaffold” (PLoS ONE, 2013).
Where a name gives a salt, the structure may show the parent alone.

Tests used:
[1] = molecular target: T1, cold-active Vibrio alkaline phosphatase (VAP) (Vibrio sp. G15-21, UniProt Q93P54); assay: inhibition of native alkaline phosphatase activity at pH […] (n = […]); type: biochemical
T1 sequence (Q93P54 20-521): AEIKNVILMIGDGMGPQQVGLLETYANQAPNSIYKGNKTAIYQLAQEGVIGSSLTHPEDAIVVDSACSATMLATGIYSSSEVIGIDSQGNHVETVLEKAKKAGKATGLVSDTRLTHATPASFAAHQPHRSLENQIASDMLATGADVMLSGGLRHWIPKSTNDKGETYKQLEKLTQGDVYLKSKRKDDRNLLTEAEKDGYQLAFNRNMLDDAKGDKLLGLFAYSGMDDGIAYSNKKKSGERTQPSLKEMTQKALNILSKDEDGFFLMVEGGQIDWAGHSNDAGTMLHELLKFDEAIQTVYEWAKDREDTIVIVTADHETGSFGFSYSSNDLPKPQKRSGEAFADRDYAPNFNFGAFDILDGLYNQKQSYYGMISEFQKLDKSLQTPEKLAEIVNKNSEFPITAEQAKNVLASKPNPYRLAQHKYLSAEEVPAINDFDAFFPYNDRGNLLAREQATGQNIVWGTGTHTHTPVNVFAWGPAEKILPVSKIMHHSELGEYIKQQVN

[2] = molecular target: phosphoinositide-specific phospholipase C (PI-PLC) (Bacillus cereus, UniProt P14262); assay: inhibition of phospholipase activity of commercial PI-PLC on PI-containing large unilamellar vesicles (turbidity/aggregation assay); type: biochemical
Chain of phosphoinositide-specific phospholipase C (PI-PLC) (P14262 32-329 limits assumed): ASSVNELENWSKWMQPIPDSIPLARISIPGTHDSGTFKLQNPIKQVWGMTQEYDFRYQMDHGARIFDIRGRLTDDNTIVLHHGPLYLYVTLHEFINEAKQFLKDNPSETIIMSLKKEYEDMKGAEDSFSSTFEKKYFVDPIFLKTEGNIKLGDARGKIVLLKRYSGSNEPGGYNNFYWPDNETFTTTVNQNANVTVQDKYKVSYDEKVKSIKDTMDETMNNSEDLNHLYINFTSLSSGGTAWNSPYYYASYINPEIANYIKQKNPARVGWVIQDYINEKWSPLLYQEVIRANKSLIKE

Molecule `NCCc1ccc(S(=O)(=O)F)cc1` [AEBSF, 4-(2-aminoethyl) benzenesulfonyl fluoride hydrochloride] has an IC50 [1] of 350 µM and an IC50 [2] of 18 µM.
